Test results published in patent publication US20240335444A1, “MODULATORS OF BCL6 PROTEOLYSIS AND ASSOCIATED METHODS OF USE” (Arvinas Operations, Inc., priority 2023, published 2024).

Tested on: OCI-Ly1
Test: Tumor growth of DLBCL cell line derived xenograft model OCI-Ly1
Format: in vivo, mice
Details: BCL6 sensitive tumor xenograft model (OCI-Ly1), 10 mg/kg BID
Method: Mice bearing subcutaneous tumors were orally (po) administered vehicle or Compound A at 1, 3, 10, or 30 mg/kg daily for 22 days (qd×22). Dosing began with tumors at an average of 140 mm^3. […] Statistical analyses were performed using 2-way ANOVA: p<0.0001 (****). Error bars represent standard error of the mean (±SEM).
Mice bearing subcutaneous tumors were orally (po) administered vehicle or Compound A at 1, 3, or 10 mg/kg bi-daily for 23 days (bid×23). Dosing began with tumors at an average of 170 mm^3. […] FIG. 7C depicts tumor lysate BCL6 protein levels 16-hours post-last dose analyzed by western blotting. Individual tumor BCL6 levels are shown in a scatter plot, mean is represented by the bar, determined by densitometry, normalized to GAPDH loading controls, and shown as a percentage of vehicle. Percent BCL6 degradation (%) relative to vehicle is shown above each arm. Statistical analyses were performed using 2-way ANOVA: p<0.0001 (****). Error bars represent standard error of the mean (±SEM).

| Structure (SMILES) | Ly-1 TGI @ 10 mg/kg (BID) [%] |
| --- | --- |
| CNC(=O)COc1cc2cc(Nc3nc(N4CCC(O[C@H]5C[C@H](N6CCC(c7cc(C)c8c(c7F)CN(C7CCC(=O)NC7=O)C8=O)CC6)C5)CC4)ncc3Cl)ccc2n(C(C)C)c1=O (some centres unmarked) [Compound 208, 2-({6-[(5-chloro-2-{4-[(1r,3r)-3-{4-[2-(2,6-dioxopiperidin-3-yl)-4-fluoro-7-methyl-1-oxo-2,3-dihydro-1H-isoindol-5-yl]piperidin-1-yl}cyclobutoxy]piperidin-1-yl}pyrimidin-4-yl)amino]-2-oxo-1-(propan-2-yl)-1,2-dihydroquinolin-3-yl}oxy)-N-methylacetamide] | 77 |
| CNC(=O)COc1cc2cc(Nc3nc(N4CCC(O[C@H]5C[C@H](N6CCN(c7ccc8c(c7)CN([C@H]7CCC(=O)NC7=O)C8=O)C(C)(C)C6)C5)CC4)ncc3Cl)ccc2n(C(C)C)c1=O [Compound 211, 2-({6-[(5-chloro-2-{4-[(1r,3r)-3-(4-{2-[(3S)-2,6-dioxopiperidin-3-yl]-1-oxo-2,3-dihydro-1H-isoindol-5-yl}-3,3-dimethylpiperazin-1-yl)cyclobutoxy]piperidin-1-yl}pyrimidin-4-yl)amino]-2-oxo-1-(proapn-2-yl)-1,2-dihydroquinolin-3-yl}oxy)-N-methylacetamide] | 87 |
| CNC(=O)COc1cc2cc(Nc3nc(N4CCC(O[C@H]5C[C@H](N6CCC(c7ccc8c(c7Cl)CN(C7CCC(=O)NC7=O)C8=O)CC6)C5)CC4)ncc3Cl)ccc2n(C(C)C)c1=O (some centres unmarked) [Compound 163, 2-({6-[(5-chloro-2-{4-[(1r,3r)-3-{4-[4-chloro-2-(2,6-dioxopiperidin-3-yl)-1-oxo-2,3-dihydro-1H-isoindol-5-yl]piperidin-1-yl}cyclobutoxy]piperidin-1-yl}pyrimidin-4-yl)amino]-2-oxo-1-(propan-2-yl)-1,2-dihydroquinolin-3-yl}oxy)-N-methylacetamide] | 95 |
| CNC(=O)COc1cc2cc(Nc3nc(N4CCC(O[C@H]5C[C@H](N6CC[C@@H](c7ccc8c(c7F)CN([C@H]7CCC(=O)NC7=O)C8=O)C(C)(C)C6)C5)CC4)ncc3Cl)ccc2n(C(C)C)c1=O [Compound 209, 2-({6-[(5-chloro-2-{4-[(1r,3r)-3-[(4R)-4-{2-[(3S)-2,6-dioxopiperidin-3-yl]-4-fluoro-1-oxo-2,3-dihydro-1H-isoindol-5-yl}-3,3-dimethylpiperidin-1-yl]cyclobutoxy]piperiidn-1-yl}pyrimidin-4-yl)amino]-2-oxo-1-(propan-2-yl)-1,2-dihydroquinolin-3-yl}oxy)-N-methylacetamide] | 104 |
| CNC(=O)COc1cc2cc(Nc3nc(N4CCC(O[C@H]5C[C@H](N6CCC(c7ccc8c(c7F)CN(C7CCC(=O)NC7=O)C8=O)CC6)C5)CC4)ncc3Cl)ccc2n(C(C)C)c1=O (some centres unmarked) [Compound 81, 2-({6-[(5-chloro-2-{4-[(1r,3r)-3-{4-[2-(2,6-dioxopiperidin-3-yl)-4-fluoro-1-oxo-2,3-dihydro-1H-isoindol-5-yl]piperidin-1-yl}cyclobutoxy]piperidin-1-yl}pyrimidin-4-yl)amino]-2-oxo-1-(propan-2-yl)-1,2-dihydroquinolin-3-yl}oxy)-N-methylacetamide] | 100 |
